The results in this text go back to US9676714B2, “Sulfonylindole derivatives and method for preparing the same” (Daewoong Pharmaceutical Co., Ltd., priority 2013, dated 2017).

Where a name gives a salt, the structure may show the parent alone.

The subject of assay [1] is basal gastric acid secretion. As to the kind of experiment: Inhibitory effect on the basal gastric acid secretion in pylorus-ligated rats (Shay's rat model). In kind it is in vivo, Sprague Dawley (SD) rats. The conditions noted are these: 5 h, male SD rats, 3 mg/kg/2 ml into the duodenum, five hours after the ligation, total gastric acid secretion vs control group. The method, then: 3) Inhibitory Effect on the Basal Gastric Acid Secretion in Pylorus-Ligated Rats
Assays for determining inhibitory effect of the compounds of the present invention on the basal gastric acid secretion was performed according to Shay's rat model (Shay, H., et al., 1945, gastroenterology, 5, p. 43-61). Male Sprague Dawley (SD) rats with a body weight in the range of 180˜220 g were divided into test (n=5) and control groups (n=5), and fasted for 18 hours with free access to water. Under isoflurane anesthesia, the abdomens of the rats were incised and then the pylorus was ligated. After the ligation, the control groups were administered with only 10% ethanol, 20% polyethylene glycol (PEG) 400, and 10% aqueous Cremophor solution through the duodenum, and the other groups were administered with test compounds suspended in 10% ethanol, 20% PEG 400, and 10% aqueous Cremophor solution at a concentration of 3 mg/kg/2 ml into the duodenum. Five hours after the ligation, the experimental animals were euthanized and their stomach contents were collected. The thus obtained contents were centrifuged at 4,000×g for 10 minutes, and the supernatant was recovered to obtain gastric juice therefrom. The amount of the gastric juice and its pH were measured. The acidity of the gastric juice was determined by 0.1 N-NaOH volume (ueq/mL) for automatic titration of gastric acid to pH 7.0. The total acid output was obtained by multiplying the gastric acidity by the amount of gastric juice. Inhibition Activity (%) of Test Compounds=(total gastric acid secretion in control group−total gastric acid secretion in groups treated with test compounds)/total gastric acid secretion in control group×100

In assay [2] the target is T1, proton pump (H+/K+-ATPase) (Sus scrofa, UniProt P19156).
T1 construct: Gastric vesicles were prepared from hog stomach via centrifugal separation; from tissue; host or cells: hog stomach (gastric vesicles, method of Rabon et al. 1988)
T1 sequence (P19156 whole entry): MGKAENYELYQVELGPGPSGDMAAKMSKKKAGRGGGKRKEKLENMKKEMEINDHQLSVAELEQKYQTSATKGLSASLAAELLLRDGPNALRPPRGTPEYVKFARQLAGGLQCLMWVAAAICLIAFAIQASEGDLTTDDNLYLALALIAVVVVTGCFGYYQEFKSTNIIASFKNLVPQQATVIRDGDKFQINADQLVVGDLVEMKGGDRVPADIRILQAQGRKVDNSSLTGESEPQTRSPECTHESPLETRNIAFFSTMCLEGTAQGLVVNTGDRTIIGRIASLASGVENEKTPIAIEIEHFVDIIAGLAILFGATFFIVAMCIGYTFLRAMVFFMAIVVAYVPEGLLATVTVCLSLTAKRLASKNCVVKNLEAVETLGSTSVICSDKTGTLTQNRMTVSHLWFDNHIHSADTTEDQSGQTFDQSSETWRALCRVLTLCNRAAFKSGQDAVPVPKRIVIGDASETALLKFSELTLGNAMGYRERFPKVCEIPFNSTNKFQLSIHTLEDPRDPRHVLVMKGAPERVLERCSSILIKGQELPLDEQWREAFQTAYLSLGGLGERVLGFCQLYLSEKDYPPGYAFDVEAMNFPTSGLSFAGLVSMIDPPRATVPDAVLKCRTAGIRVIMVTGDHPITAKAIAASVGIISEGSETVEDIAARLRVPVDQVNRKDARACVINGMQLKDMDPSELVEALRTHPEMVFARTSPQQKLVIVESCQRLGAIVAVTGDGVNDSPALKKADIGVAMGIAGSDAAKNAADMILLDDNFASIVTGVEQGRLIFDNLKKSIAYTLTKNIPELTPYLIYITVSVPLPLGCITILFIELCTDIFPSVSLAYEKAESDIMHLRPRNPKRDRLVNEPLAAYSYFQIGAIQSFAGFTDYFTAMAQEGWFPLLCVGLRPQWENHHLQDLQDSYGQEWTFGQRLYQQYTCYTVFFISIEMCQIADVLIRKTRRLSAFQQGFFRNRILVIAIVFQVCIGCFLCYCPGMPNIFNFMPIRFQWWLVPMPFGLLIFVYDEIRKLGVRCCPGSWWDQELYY
T1 sequence (P18434 whole entry partner): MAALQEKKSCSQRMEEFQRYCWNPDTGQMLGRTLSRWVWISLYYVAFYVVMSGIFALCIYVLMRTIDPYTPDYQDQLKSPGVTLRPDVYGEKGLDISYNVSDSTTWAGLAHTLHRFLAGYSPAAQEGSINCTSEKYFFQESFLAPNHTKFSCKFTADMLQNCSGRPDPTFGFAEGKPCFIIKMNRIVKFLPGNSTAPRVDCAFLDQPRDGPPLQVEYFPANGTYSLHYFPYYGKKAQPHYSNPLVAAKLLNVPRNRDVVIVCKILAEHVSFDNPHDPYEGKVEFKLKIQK
The assay is described as follows: Measurement of inhibitory effects on proton pump (H+/K+-ATPase) activities. The format is biochemical. The settings on record: hog gastric vesicles, K+-specific H+/K+-ATPase activity, Tris-HCl buffer pH 7.4, 37° C. for 40 minutes, malachite green Pi readout. Summed up: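 Hog gastric vesicles in 60 mmol/l Tris-HCl pH 7.4 with 0.5% DMSO were treated with compounds at room temperature; reaction was started with 10 μl of 10 mmol/l ATP stock. Released Pi was read at 570 nm, K+-specific activity taken as the ±K+ difference. IC50 from 4-parameter logistic fit.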

Usually inhibition in vivo stands for the percentage by which the read-out fell short of the control. The term IC50 denotes the concentration at which inhibition is half-maximal. A higher IC50 goes with lower potency. In assay [1], `CNCc1cn(S(=O)(=O)c2cncc(F)c2)c2cc(Nc3ccc(OC)cc3OC(F)(F)F)ccc12` [Example 214, 1-((5-fluoropyridin-3-yl)sulfonyl)-N-(4-methoxy-2-(trifluoromethoxy)phenyl)-3-((methylamino)methyl)-1H-indol-6-amine hydrochloride] came in with an inhibition in vivo at 3 mg/kg of 75%. The compound further returned a half-inhibitory concentration (IC50) in assay [2] of 1690 nM.
For `CNCc1cn(S(=O)(=O)c2cncc(F)c2)c2cc(Nc3ccc(OC(F)(F)F)cc3OC)ccc12` [Example 216, 1-((5-fluoropyridin-3-yl)sulfonyl)-N-(2-methoxy-4-(trifluoromethoxy)phenyl)-3-((methylamino)methyl)-1H-indol-6-amine hydrochloride], in assay [1], the inhibition in vivo at 3 mg/kg came to 69%. Further, inhibition in assay [2] was half-maximal at 1500 nM (IC50).
In assay [1], `CNCc1cn(S(=O)(=O)c2cncc(F)c2)c2cc(Nc3ccc(OC)nc3Cl)ccc12` [Example 217, N-(2-chloro-6-methoxypyridin-3-yl)-1-((5-fluoropyridin-311)sulfonyl)-3-((methylamino)methyl)-1H-indol-6-amine hydrochloride] came in with an inhibition in vivo at 3 mg/kg of 44%. This compound also returned an IC50 in assay [2] of 540 nM.
In assay [1], `CNCc1cn(S(=O)(=O)c2cncc(F)c2)c2cc(Nc3ccc(C(F)(F)F)nc3Cl)ccc12` [Example 218, N-(2-chloro-6-(trifluoromethyl)pyridin-3-yl)-1-((5-fluoropyridin-3-yl)sulfonyl)-3-((methylamino)methyl)-1H-indol-6-amine hydrochloride] returned an inhibition in vivo at 3 mg/kg of 49%. Half-maximal inhibition in assay [2] (IC50) was put at 2920 nM.
Take `CNCc1cn(S(=O)(=O)c2cccc(C)c2)c2cc(Nc3ccc(C)cc3F)ccc12` [Example 226, N-(2-fluoro-4-methylphenyl)-3-((methylamino)methyl)-1-(m-tolylsulfonyl)-1H-indol-6-amine hydrochloride]: in assay [1], the inhibition in vivo at 3 mg/kg turned out to be 44%. Further, in assay [2], the IC50 was 1160 nM.
The compound `CNCc1cn(S(=O)(=O)c2cccnc2)c2cc(Cc3ccc(C)cc3Cl)ccc12` [Example 267, 1-(6-(2-chloro-4-methylbenzyl)-1-(pyridin-3-ylsulfonyl)-1H-indol-3-yl)-N-methylmethanamine hydrochloride] displayed an inhibition in vivo at 3 mg/kg in assay [1] of 44%. This compound also displayed an IC50 in assay [2] of 230 nM.
On to `CNCc1cn(S(=O)(=O)c2cccnc2)c2cc(Cc3ccc(C)cc3)ccc12` [Example 270, N-methyl-1-(6-(4-methylbenzyl)-1-(pyridin-3-ylsulfonyl)-1H-indol-3-yl)methanamine hydrochloride], for which 3 mg/kg produced 38% inhibition in vivo in assay [1]. In addition, the IC50 in assay [2] stood at 790 nM.
For the compound `CNCc1cn(S(=O)(=O)c2cccnc2)c2cc(Cc3ccc(C)cc3F)ccc12` [Example 272, 1-(6-(2-fluoro-4-methylbenzyl)-1-(pyridin-3-ylsulfonyl)-1H-indol-3-yl)-N-methylmethanamine hydrochloride], in assay [1], at 3 mg/kg the inhibition in vivo was 41%. For the same compound, the IC50 in assay [2] worked out at 500 nM.
For `CNCc1cn(S(=O)(=O)c2cccnc2)c2cc(Cc3ccc(F)cc3Cl)ccc12` [Example 273, 1-(6-(2-chloro-4-fluorobenzyl)-1-(pyridin-3-ylsulfonyl)-1H-indol-3-yl)-N-methylmethanamine hydrochloride] the same measures were 32% and 370 nM.
`CNCc1cn(S(=O)(=O)c2cccnc2)c2cc(Cc3ccc(C)c(F)c3F)ccc12` [Example 286, 1-(6-(2,3-difluoro-4-methylbenzyl)-1-(pyridin-3-ylsulfonyl)-1H-indol-3-yl)-N-methylmethanamine hydrochloride]: the inhibition in vivo at 3 mg/kg in assay [1] stood at 35%. In assay [2], this compound displayed an IC50 of 390 nM.
For `CNCc1cn(S(=O)(=O)c2cccc(C(F)(F)F)c2)c2cc(N(C)c3ccc(OC)nc3Cl)ccc12` [Example 315, N-(2-chloro-6-methoxypyridin-3-yl)-N-methyl-3-((methylamino)methyl)-1-((3-(trifluoromethyl)phenyl)sulfonyl)-1H-indol-6-amine hydrochloride] the same measures were 45% and 2950 nM.
`CNCc1cn(S(=O)(=O)c2cccc(F)c2)c2cc(Nc3ccc(Cl)cc3Cl)cnc12` [Example 342, N-(2,4-dichlorophenyl)-1-((3-fluorophenyl)sulfonyl)-3-((methylamino)methyl)-1H-pyrrolo[3,2-b]pyridin-6-amine hydrochloride] came in with an inhibition in vivo at 3 mg/kg in assay [1] of 41%. In assay [2], this compound showed an IC50 of 400 nM.
`CNCc1cn(S(=O)(=O)c2cccc(F)c2)c2cc(Nc3ccc(OC(F)(F)F)cc3OC)ncc12` [Example 356, 1-((3-fluorophenyl)sulfonyl)-N-(2-methoxy-4-(trifluoromethoxy)phenyl)-3-((methylamino)methyl)-1H-pyrrolo[3,2-c]pyridin-6-amine hydrochloride]: the inhibition in vivo at 3 mg/kg in assay [1] worked out at 63%. In assay [2], this compound gave an IC50 of 2000 nM.
